From patent publication US20250250308A1, “METHODS AND COMPOSITIONS WITH ANTIFUNGAL ACTIVITY” (priority 2022, published 2025)
Several values for one entry are separate records, joined by “and”; a condition that tells them apart may be missing. Identical values can stand only once. Entries after “also recorded” stand apart in the source; their conditions may differ. Square brackets hold non-standard residues; d marks the D form. Peptide text beside a SMILES is read from it.

Key:
C. albicans [1] = assay: Killing of C. elegans by C. albicans (survival of infected nematodes); assay type: in vivo; settings: for Protection of C. elegans from C. albicans infection (survival): 1 nM peptide; for Median survival: C. albicans infected C. elegans exposed to 1 nM peptide, one value per trial
Procedure: The α7 helix is sufficient to protect C. elegans and inhibit surface adhesion. Based on this structural characterization, fragments of EntV were examined to identify those structural moieties that retained antifungal activity. Synthetic peptides were generated of each of the four alpha helices (plus two flanking amino acids) from the active C-terminus of EntV—α4, α5, α6 and α7 (FIG. 1A) as well as an α4-α6 construct. The peptides were tested for their ability to protect C. elegans against C. albicans infection as established in previous work (Cruz et al., 2013; Graham et al., 2017).
Killing of C. elegans by C. albicans. The methodology used for the C. elegans infection assays was performed, with a few modifications, as described ((Breger et al., 2007; Cruz et al., 2013; Graham et al., 2017; Peleg et al., 2008)). Briefly, C. elegans glp-4(bn2); sek-1(km-4) (Breger et al., 2007) nematodes were propagated and maintained on E. coli strain OP50(Brenner, 1974) that was seeded onto nematode growth medium (NGM) agar using standard techniques (Hope, 1999). To synchronize the animals, L1 stage worms on non-starved plates were washed off, filtered through a 10 μm filter (pluriSelect, pluriStrainer 10 μm), harvested by centrifugation, transferred to OP50 seeded plates, and grown to the L4 stage. To prepare the infection plates, C. albicans strain […] (Gillum et al., 1984) was grown in YPD broth for 24 h at 37° C. with agitation. 500 μl of the culture was plated onto BHI solid medium containing gentamycin (10 μg/ml) and grown for 24 h at 37° C. The synchronized, L4 C. elegans were washed off the OP50 plates in 2 ml sterile M9 buffer and washed once, centrifuging at 750×g for 30 seconds to collect animals. Animals were infected by placing them on the SC5314 lawn for 4 h at 25° C. Following this exposure, they were washed off the plate and washed four times with 2 ml of sterile M9. The nematodes were then pipetted (˜30 per well with 2 wells per condition for a total of ˜60 worms assayed) into six-well plates with 2 ml of liquid medium (20% BHI broth and 80% M9) containing the indicated concentrations of test compounds. Plates were incubated at 25° C., and worm death was scored daily. Kaplan-Meier survival curves were generated and analyzed as described in the quantification and statistical analysis section.

[2] = Peptide serum stability assay; assay type: in vitro ADME; settings: 10% human serum, 37° C., HPLC; read-out: Peptide remaining after 24 hours in human serum
Procedure: Peptide serum stability assay. One mL of RPMI supplemented with 10% (v/v) of human serum (type AB) were aliquoted and temperature-equilibrated at 37° C. for 15 min before adding a concentrated stock peptide solution resulting in a final peptide concentration of 100 μM. For each time point, 100 μL of the reaction solution was removed and added to 200 μL 96% ethanol for precipitation of serum proteins. The sample was cooled (4° C.) for 15 min and then spun at 18,000 g for 2 min to pellet the precipitated serum proteins. The reaction supernatant was analyzed using HPLC with absorbance detected at 280 nm. The peptide peak was detected first without serum treatment to assess the area under the curve for the peptide of interest. At each time point the area under the curve was calculated by HPLC and then divided by the untreated peptide area under the curve to determine the percent remaining.

C. albicans [3] = assay: Mouse OPC (oropharyngeal candidiasis) model; assay type: in vivo; settings: 100 nM in drinking water for 5 days following inoculation
Procedure: Mouse OPC model. The efficacy of EntV fragments were tested in the OPC model as described (Graham et al., 2017; Solis and Filler, 2012). Mice were immunosuppressed by injecting 225 mg/kg cortisone acetate subcutaneously 1 d before inoculation, and subsequently on days 1 and 3 of the infection. Group size was 6-8. To prepare the inoculum, 1 ml of C. albicans (SC5314) overnight culture grown at 30° C. in YPD broth was washed twice in PBS before resuspension in sterile Hanks' balanced salt solution (HBSS) at a concentration of 1×10^6 cells/mL. Calcium alginate swabs were soaked in this inoculum for 5 minutes prior to inoculation. Mice were anesthetized using ketamine and xylazine and placed on pre-warmed isothermal pads and the swabs were placed sublingually for 75 min. Mice were given additional doses of ketamine (50 mg/kg), as necessary. After inoculation, mice were given drinking water with EntV fragments or DMSO (0.01%) in the drinking water ad libitum. Mice were euthanized at 5 d after inoculation, unless noted. The tongues were excised and cut in half laterally for tissue histology and assessment of fungal burden.
For tissue histology the tongue sample was placed in 10% zinc-buffered formalin overnight and stored in 80% ethanol, before embedding in paraffin. For each tongue, 5 μm sections were prepared using a Leica microtome and stained using Periodic Acid-Schiff (PAS) stain. Epithelial invasion was measured from 40× images taken of the entire tissue section of each tongue half with the total area of epithelium and infected epithelium were measured using ImageJ (version 1.6). Measurements were totaled and expressed as a percentage of total infected epithelium relative to the entire epithelial area (Graham et al., 2017; Moyes et al., 2016).
For examination of fungal burden, qPCR was used by amplifying a 269-bp fragment of the internal transcribed spacer 2 (ITS2) between the 5.8S and 28S ribosomal RNA genes of C. albicans (Graham et al., 2017; Khot et al., 2009). DNA was extracted from homogenized tongue tissue using the Yeast DNA Extraction Kit (Thermo Scientific) according to the protocol with minor modifications. The ITS2 fragment was amplified by qPCR was performed with a CFX96 Real-Time System with a C1000 Touch thermal cycler (BioRad). C. albicans gDNA was quantified using FastStart Universal SYBR Green master mix with ROX (Roche). To screen for contamination and background fluorescence during the qPCR amplification, no template controls were used.

Cryptococcus neoformans = assay: High-throughput Sytox Orange C. elegans infection assay, C. neoformans; assay type: in vivo; settings: five days of infection; vs. DMSO control
Procedure: FIGS. 15A-15D: Secondary testing of gain-of-function variants from screen. (FIG. 15A) Survival over time of C. elegans infected with C. albicans and exposed to 1 nM of the indicated peptides. Statistical differences in survival were compared to animals in the exposure condition on the right of the legend (12aa-WT) by Mantel-Cox log rank analysis. An n of 30 animals was used and one representative trial is shown. (FIG. 15B) Percent survival as measured by the high-throughput Sytox Orange assay following five days of infection with C. albicans is shown. Means were calculated with the error bars representing the SEM. Statistical differences in survival were compared to animals in the untreated condition (DMSO) by one-way ANOVA followed by Dunnett's multiple comparison test. An n of 30 animals was used per experimental group. (FIG. 15C) Adhesion of C. albicans to tissue-culture treated plates following incubation with 10 nM of the indicated peptides is shown. […] Means were calculated with the error bars representing the SEM. Statistical significance in comparison to the DMSO control group was determined using one-way ANOVA followed by Tukey's multiple comparison test. […] (FIG. 15D) Percent survival as measured by the high-throughput Sytox Orange assay following five days of infection with C. neoformans is shown. Means were calculated with the error bars representing the SEM. […]

C. albicans [4] = assay: High-throughput Sytox Orange C. elegans infection assay, C. albicans; assay type: in vivo; settings: five days of infection; vs. DMSO control
Procedure: FIGS. 15A-15D: Secondary testing of gain-of-function variants from screen. (FIG. 15A) Survival over time of C. elegans infected with C. albicans and exposed to 1 nM of the indicated peptides. Statistical differences in survival were compared to animals in the exposure condition on the right of the legend (12aa-WT) by Mantel-Cox log rank analysis. An n of 30 animals was used and one representative trial is shown. (FIG. 15B) Percent survival as measured by the high-throughput Sytox Orange assay following five days of infection with C. albicans is shown. Means were calculated with the error bars representing the SEM. Statistical differences in survival were compared to animals in the untreated condition (DMSO) by one-way ANOVA followed by Dunnett's multiple comparison test. An n of 30 animals was used per experimental group. (FIG. 15C) Adhesion of C. albicans to tissue-culture treated plates following incubation with 10 nM of the indicated peptides is shown. A non-adherent strain (Δefg1/Δcph1) was used as a control. Means were calculated with the error bars representing the SEM. Statistical significance in comparison to the DMSO control group was determined using one-way ANOVA followed by Tukey's multiple comparison test. An n of three biological replicates, each with four technical replicates, was used. (FIG. 15D) Percent survival as measured by the high-throughput Sytox Orange assay following five days of infection with C. neoformans is shown. Means were calculated with the error bars representing the SEM. Statistical differences in survival were compared to animals in the untreated condition (DMSO) by one-way ANOVA followed by Dunnett's multiple comparison test. An n of 30 animals was used per experimental group.
High-throughput screening of this library was performed by employing established assays to assess antifungal agent efficacy. […] By using these assays in concert, each individual peptide was assessed using two approaches that probe different aspects of C. albicans virulence.

C. auris = assay: Survival of C. elegans infected with C. auris; assay type: in vivo; settings: 1 nM peptide
Procedure: FIGS. 6A-6D: EntV peptides have activity against many fungal species and strains. Survival over time of C. elegans infected with C. auris, (FIG. 6A), C. neoformans, (FIG. 6B), and C. albicans, (FIG. 6C), paired clinical isolates before (AzS: fluconazole-susceptability) and after gaining fluconazole resistance (AzR), (FIG. 6D). Peptides were added at 1 nM and fluconazole at 4 ug/ml. Statistical differences in survival were compared to animals to the DMSO vehicle control by Mantel-Cox log rank analysis. An n of 60 was used and one representative trial is shown. Exact p values from top to bottom: (FIG. 6A) <0.0001, <0.0001, (FIG. 6B) <0.0001, <0.0001, (FIG. 6C) 0.0013, 0.0004, 0.0035, (FIG. 6D) 0.0050, 0.0040, 0.5539.
EntV peptides have activity against other fungal species and strains. […] Paired clinical isolates of C. albicans, in which fluconazole-resistance had been gained following in-patient evolution were tested and it was determined that animals infected with both the original strain as well as the fluconazole-resistant descendent were protected by EntV ([…]).
Killing of C. elegans by C. albicans. […] Plates were incubated at 25° C., and worm death was scored daily. Kaplan-Meier survival curves were generated and analyzed as described in the quantification and statistical analysis section.

Compound	Protection of C. elegans from C. albicans infection (survival) (C. albicans [1])	Fungal burden in the tongue (C. albicans DNA by qPCR) (C. albicans [3])	Hyphal (epithelial) invasion of the tongue (C. albicans [3])	Median survival (C. albicans [1])	Survival of C. elegans by Sytox Orange assay, C. albicans (C. albicans [4])	further results
CC(C)C[C@@H](NC(=O)[C@@H](C)NC(=O)[C@@H](CC(C)C)NC(=O)[C@@H](CCC(N)=O)NC(=O)CNC(=O)[C@@H](C)NC(=O)[C@H](N)C(C)C)C(=O)N[C@H](Cc1c[nH]c2ccccc12)C(=O)N[C@H](C)C(=O)N[C@@H](C(=O)N[C@H](CCC(N)=O)C(=O)N[C@H](CS)C(N)=O)C(C)C [12aa D-form peptide] (H-[dV][dA]G[dQ][dL][dA][dL][dW][dA][dV][dQ][dC]-NH2)	remained as effective as the original in protecting C. elegans against infection with C. albicans	–	–	–	–	remaining at 24 h, 100 μM [2]: ~35%
AGQLALWAVQC [11aa]	–	reduced fungal burden in the OPC model, but not to the same degree as the 12-mer	some reduction	9 days and 10 days	–	–
GQLALWAVQC [10aa]	–	reduced fungal burden in the OPC model, but not to the same degree as the 12-mer	some reduction	8 days and 9 days	–	Survival of C. elegans by Sytox Orange assay, C. neoformans (Cryptococcus neoformans): not effective
LVLAFWAVVC [P3]	as effective in protecting the animals as the original 12aa peptide	–	–	–	statistically significant antifungal activity	–
TNAAAAQQGGIICLLVVWLS [α7 - disrupt]	–	–	–	6 days	–	–
TNAIIVAGQLALWAVQCG [α7]	protected C. elegans from C. albicans infection as well or better than full-length, active EntV^68	–	–	10.5 days and 12 days and 11 days and 10 days and 13 days and 14 days	–	Survival of C. elegans infected with C. auris (C. auris): protected animals from death
TNVGALWICGLAVIQAAQLS [α7 - random]	–	–	–	7 days	–	–
VLLALWALVC [P5]	as effective in protecting the animals as the original 12aa peptide	–	–	–	–	–
VQLALWAVQC [P4]	as effective in protecting the animals as the original 12aa peptide	significantly reduced; also recorded: more effective than P1 in reducing fungal burden	significantly reduced	–	statistically significant antifungal activity	–
VVLALWAVQC [P1]	as effective in protecting the animals as the original 12aa peptide	significantly reduced	significantly reduced	–	statistically significant antifungal activity	–
